According to the supplement of paper PMC10307832:

Assays:
Experiment in all cases: relative viability (nuclei count vs DMSO), 5 days (fraction); higher = more cells survive
[1] = compound: CC(C)C[C@H](NC(=O)[C@H](CCc1ccccc1)NC(=O)CN1CCOCC1)C(=O)N[C@@H](Cc1ccccc1)C(=O)N[C@@H](CC(C)C)C(=O)[C@@]1(C)CO1 [Carfilzomib] + O=C(c1cc(Cc2n[nH]c(=O)c3ccccc23)ccc1F)N1CCN(C(=O)C2CC2)CC1 [Olaparib] (partner 8 µM)
Procedure, shortened: (§1)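 Relative viability equals treated-well nuclei counts divided by vehicle-well nuclei counts. Counts came from 4× images of lung cancer cell lines grown in 1536-well plates for 5 days after pin-tool dosing on the day after seeding. Dosing used one drug alone or a fixed anchor-drug dose plus five library-drug doses (not always all listed) in √10 steps, and values are medians of duplicate plates.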

[2] = compound: O=C(c1cc(Cc2n[nH]c(=O)c3ccccc23)ccc1F)N1CCN(C(=O)C2CC2)CC1 [Olaparib] + N=C(N)NC(=N)NCCc1ccccc1 [Phenformin] (partner 250 µM)
Procedure, shortened: as §1

[3] = compound: O=C(c1cc(Cc2n[nH]c(=O)c3ccccc23)ccc1F)N1CCN(C(=O)C2CC2)CC1 [Olaparib] + Cc1nc(Nc2ncc(C(=O)Nc3c(C)cccc3Cl)s2)cc(N2CCN(CCO)CC2)n1 [Dasatinib] (partner 0.075 µM)
Procedure, shortened: as §1

[4] = compound: CC(C)C[C@H](NC(=O)[C@H](CCc1ccccc1)NC(=O)CN1CCOCC1)C(=O)N[C@@H](Cc1ccccc1)C(=O)N[C@@H](CC(C)C)C(=O)[C@@]1(C)CO1 [Carfilzomib] + Cc1cc(Nc2cc(N3CCN(C)CC3)nc(Sc3ccc(NC(=O)C4CC4)cc3)n2)n[nH]1 [Tozasertib] (partner 0.1 µM)
Procedure, shortened: as §1

| Cell Line | relative viability ([1]; first compound 0.001 µM) | relative viability ([1]; first compound 0.003162 µM) | relative viability ([1]; first compound 0.01 µM) | relative viability ([1]; first compound 0.03162 µM) | relative viability ([1]; first compound 0.1 µM) | relative viability ([2]; first compound 0.08 µM) | relative viability ([2]; first compound 0.253 µM) | relative viability ([2]; first compound 2.53 µM) | relative viability ([2]; first compound 8 µM) | relative viability ([3]; first compound 0.08 µM) | relative viability ([3]; first compound 0.253 µM) | relative viability ([3]; first compound 2.53 µM) | relative viability ([3]; first compound 8 µM) | relative viability ([4]; first compound 0.001 µM) | relative viability ([4]; first compound 0.003162 µM) | relative viability ([4]; first compound 0.01 µM) | relative viability ([4]; first compound 0.03162 µM) | relative viability ([4]; first compound 0.1 µM) |
| --- | --- | --- | --- | --- | --- | --- | --- | --- | --- | --- | --- | --- | --- | --- | --- | --- | --- | --- |
| NCI-H1915 | 0.292 | 0.265 | 0.248 | 0.247 | 0.058 | 0.393 | 0.347 | 0.344 | 0.288 | 0.315 | 0.294 | 0.28 | 0.252 | 0.422 | 0.458 | 0.465 | 0.229 | 0.0764 |
| SW 1573 | 0.587 | 0.487 | 0.215 | 0.0532 | 0.0533 | 0.444 | 0.373 | 0.266 | 0.258 | 0.698 | 0.456 | 0.504 | 0.354 | 0.193 | 0.253 | 0.23 | 0.0683 | 0.051 |
| NCI-H2087 | 0.589 | 0.783 | 0.374 | 0.0505 | 0.0285 | 0.633 | 0.42 | 0.436 | 0.383 | 1.27 | 0.621 | 0.804 | 0.617 | 0.264 | 0.236 | 0.239 | 0.0397 | 0.0474 |
| BEN | 1.02 | 1.29 | 1.18 | 1.03 | 0.376 | – | 0.292 | 0.28 | 0.261 | – | 0.32 | 0.325 | 0.35 | 0.554 | 0.547 | 0.591 | 0.553 | 0.421 |
| NCI-H1650 | 0.811 | 0.855 | 0.723 | 0.111 | 0.137 | 0.446 | 0.475 | 0.405 | 0.537 | 0.313 | 0.342 | 0.287 | 0.285 | 0.42 | 0.392 | 0.255 | 0.139 | 0.204 |
| A-427 | 0.782 | 0.827 | 0.749 | 0.271 | 0.147 | 0.461 | 0.259 | 0.258 | 0.241 | 0.793 | 0.691 | 0.586 | 0.54 | 0.207 | 0.236 | 0.198 | 0.099 | 0.103 |
| CAL-12T | 0.765 | 0.744 | 0.702 | 0.265 | 0.145 | 0.715 | 0.497 | 0.539 | 0.558 | 0.597 | 0.281 | 0.363 | 0.283 | 0.313 | 0.393 | 0.333 | 0.251 | 0.125 |
| EPLC-272H | 0.825 | 0.864 | 0.302 | 0.0584 | 0.0607 | 0.389 | 0.298 | 0.289 | 0.338 | 0.43 | 0.293 | 0.414 | 0.338 | 0.282 | 0.25 | 0.317 | 0.105 | 0.0498 |
| NCI-H23 | 0.365 | 0.391 | 0.287 | 0.0921 | 0.101 | 0.841 | 0.714 | 0.724 | 0.609 | 0.922 | 0.802 | 0.61 | 0.488 | 0.382 | 0.428 | 0.376 | 0.122 | 0.13 |
| NCI-H1563 | – | – | – | – | – | 0.677 | 0.657 | 0.681 | 0.734 | 0.485 | 0.516 | 0.465 | 0.42 | – | – | – | – | – |
| H3255 | 0.565 | 0.609 | 0.668 | 0.402 | 0.235 | 0.435 | 0.342 | 0.38 | 0.385 | 0.401 | 0.274 | 0.491 | 0.425 | 0.697 | 0.604 | 0.686 | 0.737 | 0.392 |
| NCI-H1355 | 0.732 | 0.777 | 0.754 | 0.62 | 0.118 | 0.478 | 0.433 | 0.47 | 0.432 | 0.759 | 0.731 | 0.724 | 0.703 | 0.537 | 0.647 | 0.569 | 0.371 | 0.192 |
| HCC-44 | 1.07 | 0.975 | 0.985 | 1.03 | 0.637 | 0.208 | 0.167 | 0.271 | 0.225 | – | – | – | – | 0.826 | 1.05 | 1.22 | 0.303 | 0.157 |
| Calu-6 | 0.52 | 0.628 | 0.504 | 0.0906 | 0.0789 | – | – | – | – | – | – | – | – | – | – | – | – | – |
| NCI-H1623 | – | – | – | – | – | 0.582 | 0.619 | 0.497 | 0.474 | 0.568 | 0.504 | 0.6 | 0.494 | 0.404 | 0.443 | 0.515 | 0.434 | 0.294 |
| NCI-H1299 | 0.964 | 0.998 | 0.933 | 0.191 | 0.116 | – | – | – | – | – | – | – | – | – | – | – | – | – |
| IA-LM | 1.06 | 0.779 | 0.738 | 0.0714 | 0.0425 | – | – | – | – | – | – | – | – | – | – | – | – | – |
| EBC-1 | 0.721 | 0.63 | 0.191 | 0.0599 | 0.082 | – | – | – | – | – | – | – | – | – | – | – | – | – |
| NCI-H1703 | 0.44 | 0.493 | 0.124 | 0.1 | 0.129 | – | – | – | – | – | – | – | – | – | – | – | – | – |
